One experiment relates to Raji. The experiment can be described thus: Antiproliferative activity against human Raji cells assessed as reduction in cell viability incubated for 24 hrs by CCK-8 assay. The format is functional, cell-based. In general terms: Formazan colour is commonly taken as a measure of viable cells.
Experiment [1] relates to Ramos. Nature of the experiment: Antiproliferative activity against human Ramos cells assessed as reduction in cell viability incubated for 24 hrs by CCK-8 assay. It counts as functional, cell-based.
Experiment [2] has as its target T1, Tyrosine-protein kinase BTK (Homo sapiens, UniProt Q06187). The settings on record: dose 100.0 nM.
Description: Inhibition of BTK (unknown origin) at 100 nM by ADP-Glo assay relative to control
For experiment [3], the target named is T1, Tyrosine-protein kinase BTK. The experiment can be described thus: Inhibition of BTK (unknown origin) by ADP-Glo assay.
Experiment [4] has as its system Ramos. Nature of the experiment: Induction of apoptosis in human Ramos cells assessed as late apoptotic cells at 5 uM incubated for 24 hrs by annexin V-FITC and PI staining based flow cytometry analysis (reference value: 2.2 %). The format is functional.
Experiment [5] deals with Tyrosine-protein kinase Blk (Homo sapiens, UniProt P51451). Nature of the experiment: Inhibition of BLK (unknown origin) by ADP-Glo assay. (In general: In ADP-Glo the light output rises with the ADP produced.)
For experiment [6], the system named is Ramos. Nature of the experiment: Induction of cell cycle arrest in human Ramos cells assessed as S phase accumulation at 5 uM incubated for 24 hrs by PI staining based flow cytometry analysis (reference value: 37.38 %). The format is functional. In general terms: Flow cytometry measures light scatter and fluorescence of single cells or particles in a stream.

Experiment [7] has as its system Ramos. The experiment can be described thus: Induction of cell cycle arrest in human Ramos cells assessed as G0/G1 phase accumulation at 5 uM incubated for 24 hrs by PI staining based flow cytometry analysis (reference value: 39.13 %). It counts as functional.
Experiment [8] has as its target T1, Tyrosine-protein kinase BTK. The experiment can be described thus: Inhibition of BTK in human Ramos cells assessed as reduction in BTK phosphorylation at Tyr223 residue at 10 uM incubated for 4 hrs by Western blot analysis relative to control. The format is cell-based.
For experiment [9], the system named is Ramos. The experiment can be described thus: Induction of apoptosis in human Ramos cells assessed as early apoptotic cells at 5 uM incubated for 24 hrs by annexin V-FITC and PI staining based flow cytometry analysis (reference value: 1.9 %). It counts as functional.
In experiment [10] the target is Epidermal growth factor receptor (Homo sapiens, UniProt P00533). Nature of the experiment: Inhibition of EGFR (unknown origin) by ADP-Glo assay.
Experiment [11] deals with Ramos. The experiment can be described thus: Induction of cell cycle arrest in human Ramos cells assessed as subG1 phase accumulation at 5 uM incubated for 24 hrs by PI staining based flow cytometry analysis (reference value: 2.53 %). It counts as functional.
Experiment [12] has as its system Ramos. Nature of the experiment: Induction of apoptosis in human Ramos cells assessed as viable cells at 5 uM incubated for 24 hrs by annexin V-FITC and PI staining based flow cytometry analysis (reference value: 93.8 %). The format is functional.
The target of experiment [13] is T1, Tyrosine-protein kinase BTK. Nature of the experiment: Inhibition of BTK in human Ramos cells assessed as reduction in BTK phosphorylation at Tyr223 residue at 10 uM incubated for 4 hrs followed by compound wash-out and measured upto 24 hrs by Western blot analysis. The format is cell-based.
The target is the same in experiment [14]. Nature of the experiment: Inhibition of BTK in human TMD8 cells assessed as reduction in cell proliferation incubated for 24 hrs by CCK-8 assay. The format is cell-based.
Experiment [15] has the same target. The experiment can be described thus: Inhibition of BTK in human Ramos cells assessed as reduction in PLCgamma2 phosphorylation at Tyr557 residue at 3 uM incubated for 24 hrs by Western blot analysis. The format is cell-based.
Experiment [16] has the same target. The experiment can be described thus: Inhibition of BTK in human Ramos cells assessed as reduction in BTK phosphorylation at Tyr223 residue at 10 uM incubated for 24 hrs by Western blot analysis. The format is cell-based.
The target in experiment [17] is Proto-oncogene tyrosine-protein kinase Src (Homo sapiens, UniProt P12931). Nature of the experiment: Inhibition of SRC (unknown origin) by ADP-Glo assay.
In experiment [18] the target is T2, Tyrosine-protein kinase ITK/TSK (Homo sapiens, UniProt Q08881).
T2 sequence (Q08881 whole entry): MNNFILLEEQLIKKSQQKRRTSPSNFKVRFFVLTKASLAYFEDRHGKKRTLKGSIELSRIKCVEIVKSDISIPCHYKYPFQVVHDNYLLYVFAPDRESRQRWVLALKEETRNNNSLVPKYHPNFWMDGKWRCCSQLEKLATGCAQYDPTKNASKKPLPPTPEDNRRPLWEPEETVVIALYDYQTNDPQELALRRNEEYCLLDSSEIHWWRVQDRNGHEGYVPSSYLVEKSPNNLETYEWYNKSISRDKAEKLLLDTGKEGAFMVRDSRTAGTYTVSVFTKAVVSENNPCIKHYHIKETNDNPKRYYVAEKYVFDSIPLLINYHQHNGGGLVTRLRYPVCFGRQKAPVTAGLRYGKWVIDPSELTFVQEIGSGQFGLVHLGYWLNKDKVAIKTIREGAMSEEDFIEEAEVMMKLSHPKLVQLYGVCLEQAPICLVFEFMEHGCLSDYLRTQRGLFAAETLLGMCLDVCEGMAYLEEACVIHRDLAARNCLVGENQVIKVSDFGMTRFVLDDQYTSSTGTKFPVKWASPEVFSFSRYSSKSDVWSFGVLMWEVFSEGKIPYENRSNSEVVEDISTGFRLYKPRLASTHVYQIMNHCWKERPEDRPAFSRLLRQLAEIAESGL
Nature of the experiment: Inhibition of ITK (unknown origin) by ADP-Glo assay.

The test system of experiment [19] is Ramos. Nature of the experiment: Induction of cell cycle arrest in human Ramos cells assessed as G2/M phase accumulation at 5 uM incubated for 24 hrs by PI staining based flow cytometry analysis (reference value: 20.96 %). It counts as functional.
In experiment [20] the test system is Ramos. The experiment can be described thus: Induction of apoptosis in human Ramos cells assessed as necrotic cells at 5 uM incubated for 24 hrs by annexin V-FITC and PI staining based flow cytometry analysis (reference value: 2.1 %). It counts as functional.

Results on 20 compounds are retold here after ChEMBL document CHEMBL4765318 (Eur J Med Chem, 2020).

Molecules are shown by their SMILES. Active and inactive are the calls of the source. The calls are words filed in the database; no cut-off is given here.

T1 sequence (Q06187 whole entry): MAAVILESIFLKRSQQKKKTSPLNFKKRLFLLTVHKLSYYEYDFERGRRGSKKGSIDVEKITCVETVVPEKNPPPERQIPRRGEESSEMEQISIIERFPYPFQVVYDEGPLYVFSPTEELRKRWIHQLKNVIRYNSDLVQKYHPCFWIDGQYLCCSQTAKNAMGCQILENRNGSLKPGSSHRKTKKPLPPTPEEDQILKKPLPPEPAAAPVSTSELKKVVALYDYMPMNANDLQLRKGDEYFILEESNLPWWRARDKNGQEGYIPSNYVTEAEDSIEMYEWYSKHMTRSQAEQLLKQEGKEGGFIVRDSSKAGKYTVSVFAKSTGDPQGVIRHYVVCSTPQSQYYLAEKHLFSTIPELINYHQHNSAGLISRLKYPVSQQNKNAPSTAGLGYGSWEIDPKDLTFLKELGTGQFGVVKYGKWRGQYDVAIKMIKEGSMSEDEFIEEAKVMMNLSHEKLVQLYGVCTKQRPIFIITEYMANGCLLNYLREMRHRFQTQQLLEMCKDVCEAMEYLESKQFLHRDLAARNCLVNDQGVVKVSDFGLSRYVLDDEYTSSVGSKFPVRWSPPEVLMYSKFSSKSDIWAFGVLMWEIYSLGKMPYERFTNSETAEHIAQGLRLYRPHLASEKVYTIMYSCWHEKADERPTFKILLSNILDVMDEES
Proto-oncogene tyrosine-protein kinase Src, sequence (P12931 2-536 limits assumed): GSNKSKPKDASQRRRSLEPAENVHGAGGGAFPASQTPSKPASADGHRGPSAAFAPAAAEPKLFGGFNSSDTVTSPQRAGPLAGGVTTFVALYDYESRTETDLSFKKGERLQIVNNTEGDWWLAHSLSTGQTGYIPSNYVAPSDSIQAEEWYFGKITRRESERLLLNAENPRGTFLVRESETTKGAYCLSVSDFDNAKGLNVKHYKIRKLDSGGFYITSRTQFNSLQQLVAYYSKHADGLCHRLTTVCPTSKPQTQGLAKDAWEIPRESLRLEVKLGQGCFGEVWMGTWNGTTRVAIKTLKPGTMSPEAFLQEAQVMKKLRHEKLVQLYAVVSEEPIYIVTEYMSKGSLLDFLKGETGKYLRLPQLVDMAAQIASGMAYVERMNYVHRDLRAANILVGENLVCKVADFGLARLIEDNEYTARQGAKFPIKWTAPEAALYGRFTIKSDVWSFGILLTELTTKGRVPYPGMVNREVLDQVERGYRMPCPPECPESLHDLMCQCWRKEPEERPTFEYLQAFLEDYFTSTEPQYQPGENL
Tyrosine-protein kinase Blk, sequence (P51451 whole entry): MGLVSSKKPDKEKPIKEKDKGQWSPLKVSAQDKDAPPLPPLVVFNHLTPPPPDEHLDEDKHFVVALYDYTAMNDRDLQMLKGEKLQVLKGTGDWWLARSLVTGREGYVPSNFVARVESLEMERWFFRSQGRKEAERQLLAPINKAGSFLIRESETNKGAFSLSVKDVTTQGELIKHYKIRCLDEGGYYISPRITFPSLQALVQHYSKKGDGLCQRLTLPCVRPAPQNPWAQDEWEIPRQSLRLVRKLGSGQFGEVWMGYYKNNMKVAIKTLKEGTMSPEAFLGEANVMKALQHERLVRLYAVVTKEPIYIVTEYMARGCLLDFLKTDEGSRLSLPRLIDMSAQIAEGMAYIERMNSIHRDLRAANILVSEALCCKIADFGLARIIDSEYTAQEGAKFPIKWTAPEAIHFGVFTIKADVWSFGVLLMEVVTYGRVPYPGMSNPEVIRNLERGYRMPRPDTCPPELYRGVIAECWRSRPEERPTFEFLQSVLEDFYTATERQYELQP
Epidermal growth factor receptor, sequence (P00533 whole entry): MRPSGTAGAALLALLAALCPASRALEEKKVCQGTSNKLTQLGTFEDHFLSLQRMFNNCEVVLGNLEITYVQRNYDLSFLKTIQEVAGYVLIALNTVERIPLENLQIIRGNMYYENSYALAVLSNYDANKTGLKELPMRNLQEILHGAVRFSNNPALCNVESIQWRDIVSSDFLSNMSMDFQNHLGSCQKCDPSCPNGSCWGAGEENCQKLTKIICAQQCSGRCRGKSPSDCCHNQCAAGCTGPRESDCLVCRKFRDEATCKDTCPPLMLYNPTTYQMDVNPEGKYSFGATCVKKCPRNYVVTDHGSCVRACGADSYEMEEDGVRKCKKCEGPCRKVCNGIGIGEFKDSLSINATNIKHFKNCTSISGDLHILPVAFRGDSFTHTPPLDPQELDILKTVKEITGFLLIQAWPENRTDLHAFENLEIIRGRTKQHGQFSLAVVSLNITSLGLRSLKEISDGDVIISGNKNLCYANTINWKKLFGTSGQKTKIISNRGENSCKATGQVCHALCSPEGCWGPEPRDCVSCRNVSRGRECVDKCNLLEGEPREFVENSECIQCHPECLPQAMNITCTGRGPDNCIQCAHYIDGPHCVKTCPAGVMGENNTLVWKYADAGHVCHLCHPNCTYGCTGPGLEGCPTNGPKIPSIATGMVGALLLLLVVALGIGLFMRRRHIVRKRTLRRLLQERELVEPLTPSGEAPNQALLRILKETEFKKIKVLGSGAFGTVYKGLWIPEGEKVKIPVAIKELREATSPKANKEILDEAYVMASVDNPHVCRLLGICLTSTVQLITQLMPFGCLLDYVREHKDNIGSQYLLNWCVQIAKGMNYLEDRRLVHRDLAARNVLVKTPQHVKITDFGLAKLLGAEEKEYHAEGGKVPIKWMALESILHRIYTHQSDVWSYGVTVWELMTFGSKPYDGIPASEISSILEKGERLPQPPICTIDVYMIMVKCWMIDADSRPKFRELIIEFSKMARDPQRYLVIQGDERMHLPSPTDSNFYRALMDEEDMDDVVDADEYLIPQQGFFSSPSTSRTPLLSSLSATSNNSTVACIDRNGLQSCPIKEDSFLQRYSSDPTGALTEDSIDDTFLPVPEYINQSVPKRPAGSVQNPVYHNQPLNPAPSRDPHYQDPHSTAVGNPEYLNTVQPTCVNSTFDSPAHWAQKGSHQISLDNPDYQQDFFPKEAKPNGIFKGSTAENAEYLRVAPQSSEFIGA

Take `C=CC(=O)Nc1cccc(Nc2ncnc(Nc3ccc(C(=O)N4CCOCC4)cc3)n2)c1`: the IC50 in the experiment on Raji is 22.2 µM; in the experiment on Ramos [1], 13.2 µM. For the same compound, in experiment [2], the inhibition turned out to be 77.5%.
The matching figures for `C=CC(=O)Nc1cccc(Nc2nc(N)nc(Nc3ccc(Oc4ccccc4)cc3)n2)c1`: 8.32 µM, 20 µM and 17.1%.
On to `C=CC(=O)Nc1cc(Nc2ncnc(Nc3ccc(C(=O)N4CCCCC4)cc3)n2)ccc1C`, for which the values for the IC50 (in the experiment on Raji; in the experiment on Ramos [1]; in experiment [3]) were 30.6 µM, 48.5 µM and 0.146 µM, respectively. Also, the inhibition in experiment [2] came to 39.1%.
On to `C=CC(=O)Nc1cccc(Nc2ncnc(Nc3ccc(C(=O)Nc4ccccn4)cc3)n2)c1`, for which the IC50 in the experiment on Raji came out at 15.6 µM. The same compound showed an inhibition in [2] of 56.3%.
`C=CC(=O)Nc1cccc(Nc2nc(Cl)nc(Nc3ccc(Oc4ccccc4)cc3)n2)c1`: the IC50 in the experiment with Raji stood at 15.7 µM; in the experiment with Ramos [1] it was 12.3 µM. The same compound came in with an inhibition in experiment [2] of 7.3%.
For `C=CC(=O)Nc1cccc(Nc2ncnc(Nc3ccc(Oc4ccc(OC)cc4)cc3)n2)c1`, in the experiment with Ramos [1], the IC50 was over 100 µM. Further, the inhibition in experiment [2] was 23.4%.
With `C=CC(=O)Nc1cccc(Nc2ncnc(Nc3ccc(C(=O)N4CCCCC4)cc3)n2)c1`, the Activity came out at 10.8% in the experiment on Ramos [4]; 35.2% with Ramos [6]; 29.23% in the experiment on Ramos [7]; 2.1% in the experiment on Ramos [9]; 10.43% with Ramos [11]; 25.14% in the experiment with Ramos [19]. In the experiment on Ramos [20], the Activity is given as 2.4%. Also, the IC50 in the experiment with Raji came to 5.14 µM; in [5] it was 0.594 µM; in the experiment on Ramos [1], 6.14 µM; in experiment [10], 0.031 µM; in experiment [3], 0.021 µM; in experiment [17], 0.524 µM. Also, in [18], the IC50 stood at 2.62 µM. The inhibition was 100% in experiment [8], 91.1% in experiment [2] and “Dose-dependent effect” in experiment [14]. Moreover, the viability at 5 µM in the experiment on Ramos [12] (Homo sapiens, Ramos, read-out: Activity) is 84.7%. For the same compound, the inhibition result in experiment [13], in experiment [15] and in experiment [16] was “Active” each time.
As to `C=CC(=O)N1CCC[C@@H](n2nc(-c3ccc(Oc4ccccc4)cc3)c3c(N)ncnc32)C1` [IBRUTINIB], the Activity was 12.5% in the experiment on Ramos [4]; 29.22% in the experiment on Ramos [6]; 28.72% in the experiment on Ramos [7]; 1.9% in the experiment with Ramos [9]; 15.11% with Ramos [11]; 82.1% with Ramos [12]. Moreover, the Activity is 26.95% in the experiment on Ramos [19] and 3.5% with Ramos [20]. For the same compound, the IC50 is 12.6 µM with Raji and 1.35 µM with Ramos [1].
On to `C=CC(=O)Nc1cccc(Nc2ncnc(Nc3ccc(C(=O)Nc4ccc(C)cn4)cc3)n2)c1`, for which the IC50 with Raji is 125 µM; in the experiment with Ramos [1], over 100 µM. Also, in experiment [2], the inhibition was 41.6%.
Turning to `CC#CC(=O)Nc1cccc(Nc2ncnc(Nc3ccc(C(=O)N4CCCCC4)cc3)n2)c1`, the results for the IC50 (in the experiment with Raji; in the experiment on Ramos [1]; in [3]) were 4.62 µM, 24.4 µM and over 1 µM, respectively. The inhibition in [2] amounted to 8.9%.
In the case of `C=CC(=O)Nc1cccc(Nc2nc(Cl)nc(Nc3ccc(OCCOC)cc3)n2)c1`, in experiment [2], the inhibition is 10%.
In turn, `C=CC(=O)Nc1cccc(Nc2ncnc(Nc3ccc(-c4ccc(OC)nc4)cc3)n2)c1` gave an inhibition in experiment [2] of 32.7%.
Consider `C=CC(=O)Nc1cccc(Nc2ncnc(Nc3ccc(OCCOC)cc3)n2)c1`, for which the half-inhibitory concentration (IC50) in the experiment on Raji was found to be 105 µM; with Ramos [1], 181 µM. This compound showed an inhibition in experiment [2] of 57.1%.
Take `C=CC(=O)Nc1cccc(Nc2ncnc(Nc3ccc(-c4ccc(C)nc4)cc3)n2)c1`: in the experiment with Raji, the IC50 is 13.8 µM. The same compound had an inhibition in [2] of 55.7%.
Take `C=CC(=O)Nc1cccc(Nc2ncnc(Nc3ccc(-c4cccnc4)cc3)n2)c1`: the figures for the IC50 with Raji and in the experiment with Ramos [1] were 12.4 µM and over 100 µM, respectively. The same compound yielded an inhibition in experiment [2] of 66.6%.
Take `C=CC(=O)N1CCc2ccc(Nc3ncnc(Nc4ccc(C(=O)N5CCCCC5)cc4)n3)cc21`: the values for the IC50 (in the experiment with Raji; in experiment [3]) were 2.84 µM and 0.0543 µM, respectively. Besides, the inhibition in experiment [2] is 75.8%.
On to `C=CC(=O)Nc1cccc(Nc2ncnc(Nc3ccc(-c4ccc(Cl)nc4)cc3)n2)c1`, for which the half-inhibitory concentration (IC50) in the experiment with Ramos [1] is 160 µM. Further, in [2], the inhibition was found to be 36.7%.
`C/C=C/C(=O)Nc1cccc(Nc2ncnc(Nc3ccc(C(=O)N4CCCCC4)cc3)n2)c1`: the half-inhibitory concentration (IC50) in the experiment with Raji is 13.8 µM; in the experiment with Ramos [1], 13.2 µM; in [3], over 1 µM. In addition, in experiment [2], the inhibition turned out to be 4.8%.
As to `C=CC(=O)Nc1cccc(Nc2ncnc(Nc3ccc(-c4ccc(F)nc4)cc3)n2)c1`, the IC50 in the experiment with Raji turned out to be 3.25 µM; in the experiment with Ramos [1], 59.2 µM. For the same compound, the inhibition in experiment [2] was found to be 46.8%.
The matching figures for `C=CC(=O)Nc1cccc(Nc2nc(N)nc(Nc3ccc(OCCOC)cc3)n2)c1`: 18.3 µM, 18.9 µM and 27.7%.

As a reminder, the IC50 is the concentration needed to halve the response being measured. In general, inhibition refers to the change of the read-out against control, counted positive when it falls.
